From publication PMC9570109, “Improved Trimethylangelicin Analogs for Cystic Fibrosis: Design, Synthesis and Preliminary Screening” (International Journal of Molecular Sciences, 2022)
“Also recorded” adds a separate entry of the source.

Assays:
F508del CFTR = target: T1, F508del CFTR (Homo sapiens, UniProt P13569, DEL508-508); experiment: F508del CFTR functional rescue (corrector) HS-YFP single-cell assay; format: cell-based; conditions: CFBE41o- YFP-F508del cells; for F508del CFTR rescue (corrector) activity: 48 h incubation, 200 nM
T1 construct: expressed in transfected cells; host or cells: CFBE41o- cells overexpressing F508del CFTR and HS-YFP (YFP-H148Q/I152L), a gift from N. Pedemonte, Gaslini Institute
Description: To verify the possibility that the title compounds may act as correctors in CFBE41o-, overexpressing F508del and the high sensitivity halide-sensing yellow fluorescent protein (HS-YFP) YFP-H148Q/I152L, we examined the effect of 48 h preincubation with vehicle or the TMA analogs or TMA or VX809 (Lumacaftor), as a positive control.
At the time of the assay, the correction of the F508del-CFTR function was evaluated in single-cell analysis by measuring the decrease in YFP fluorescence after the concomitant addition of extracellular iodide and the activating cocktail (20 μM forskolin and 5 μM VX770), in the presence or absence of the 10 μM CFTR inhibitor, CFTRinh-172. […] At least two derivatives show CFTR activity similar to that of the parent TMA.
The effect of TMA analogs on CFTR function was tested in CFBE41o- overexpressing F508del and the high sensitivity halide-sensing yellow fluorescent protein (HS-YFP) YFP-H148Q/I152L (a generous gift from N. Pedemonte, Gaslini Institute, Genova, Italy). YFP CF cells were seeded on round glass coverslips and preincubated for 48 h with vehicle or test compounds or VX809 or TMA. At the time of the assay, cells were washed in Dulbecco’s PBS (in mM: 137 NaCl, 2.7 KCl, 8.1 Na2HPO4, 1.5 KH2PO4, 1 CaCl2, and 0.5 MgCl2, pH 7.4) and subsequently incubated with a stimulation cocktail (20 μM forskolin and 5 μM VX770) in the presence and absence of 10 μM CFTR inhibitor, CFTRInh-172 (Sigma), for 30 min. The coverslips were then transferred on a Nikon TMD inverted microscope through a Nikon Fluor 40 objective. The signal was acquired with a Hamamatsu C2400–97 charge-coupled intensified video camera at a rate of 1 frame/3 s. The fluorescence coming from every single cell was analyzed by custom software (Spin, Vicenza, Italy). The results are presented as transformed data to obtain the percentage signal variation (Fx) relative to the time of addition of the stimulus, according to the equation: Fx = ([Ft − Fo]/Fo) × 100, where Ft and Fo are the fluorescence values at time t and at the time of stimulus addition, respectively. The assay of each sample consists of a continuous 99-s fluorescence reading with 30 s before and 69 s after injection of the iodide-rich Dulbecco’s PBS (in mM: 137 NaI, 2.7 KCl, 8.1 Na2HPO4, 1.5 KH2PO4, 1 CaCl2, and 0.5 MgCl2, pH 7.4) to reach a final iodide concentration of 50 mM [20]. The different sensitivity of HS-YFP toward iodide and chloride allows assays to be performed by measuring the transport of anions through the plasma membrane as changes in cell fluorescence. For this assay, cells expressing HS-YFP are equilibrated in a physiological chloride-rich saline solution (e.g., Dulbecco’s PBS). During fluorescence reading, cells are exposed to a high concentration of iodide. Iodide influx quenches the cell fluorescence with a rate that depends on the permeability of the cell membrane to halides, and therefore, on the activity of the anion channels or transporters.
Figure 4 Evaluation of different TMA analogs as F508del CFTR correctors in CFBE41o- YFP-F508del cells. Correction of F508del-CFTR function was assessed, in a single cell, by measuring the decrease in YFP fluorescence upon addition of extracellular iodide and with the activating cocktail, in the presence or absence of CFTR inhibitor, CFTRInh-172. Iodide influx was tested under control condition (vehicle) or after 48 h incubation with the correctors 200 nM or 1 μM VX809. The YFP fluorescence decay rate was calculated by fitting the fluorescence data with an exponential function of time courses. CFTR activity was obtained by the difference between the fluorescence decay rate of YFP in the presence and absence of CFTRInh-172. Fluorescence coming from every single cell of at least five cells per field was recorded. Each bar corresponds to the mean ± SEM of data points coming from at least three different experiments (5–10 different cells/each experiment). […]

salmon testes DNA = experiment: Photoadduct formation with DNA under UVA irradiation (TLC analysis); conditions: 15 J/cm2 UVA
Description: The total energy that struck the sample was monitored by means of a radiometer (Variocontrol, Waldmann, Villingen-Schwenningen, Germany), equipped with a Variocontrol UV Sensor (Waldmann). The radiant power emitted by the UVA lamp was about […]. The samples were maintained at room temperature during irradiation.
The test compounds were dissolved in ethanol (2 mg/mL) and salmon testes DNA (Sigma-Aldrich) was dissolved in 10 mM NaCl and 1 mM EDTA solution (1.5 × 10^−3 M). Each test solution (250 μL) was added dropwise to the DNA solution (5 mL). The mixture was irradiated with 15 J/cm2 UVA light in a glass dish for 1 h. After irradiation, the DNA was precipitated with 1 M NaCl and two volumes of cold ethanol; the precipitated DNA was collected, washed with 80% ethanol, dried, and then dissolved in water. To obtain hydrolysis, the final solution was acidified with 1 M HCl, heated at 100 °C for 1 h, neutralized with NaOH and extracted three times with chloroform. Then, all of the organic layers were collected, dried under a high vacuum, and dissolved in ethanol. The hydrolyzed mixtures were separated by thin layer chromatography (TLC; F254 plates, 0.25 mm, Merck, Darmstadt, Germany) eluting with EtOAc/EtOH (9:1). The plates were analyzed with a Mineral Light Lamp VL-4LC VILBERT-LOURMAT (Vilber, Marne-la-Vallée, France).

HepG2 cells = experiment: Cytotoxicity MTT assay on HepG2 cells; conditions: HepG2, 24 h, highest concentration tested (50 μM)
Description: The potential toxicity of TMA analogs on hepatic tissue was assessed by evaluating the viability of HepG2 cells (ATCC, HB-8065) using the MTT assay, as previously reported [22]. Cells were maintained in DMEM complete medium (10% FBS, 1% l-glutamine and 1% PEN-STREP) and seeded in a 96-well plate (5 × 10^4 cells/mL). They were treated for 24 h with TMA analogs (concentration range from 3.125 μM to 50 μM). At the end of the treatment, cells were washed and an MTT solution (0.5 mg/mL in complete medium) was added to each well and incubated for 4 h at 37 °C. The solution was discarded, and the produced blue formazan crystals were dissolved with acidified isopropanol (2% HCl). Absorbance was measured at 570 nm using a multiplate reader (Victor Nivo, Perkin Elmer). The percentage of viable cells was calculated considering untreated cells as control.
The data shown in this figure are the results of three independent experiments, each
performed in quadruplicate.

T1 sequence (P13569 with tags, fused parts or gaps DEL508-508): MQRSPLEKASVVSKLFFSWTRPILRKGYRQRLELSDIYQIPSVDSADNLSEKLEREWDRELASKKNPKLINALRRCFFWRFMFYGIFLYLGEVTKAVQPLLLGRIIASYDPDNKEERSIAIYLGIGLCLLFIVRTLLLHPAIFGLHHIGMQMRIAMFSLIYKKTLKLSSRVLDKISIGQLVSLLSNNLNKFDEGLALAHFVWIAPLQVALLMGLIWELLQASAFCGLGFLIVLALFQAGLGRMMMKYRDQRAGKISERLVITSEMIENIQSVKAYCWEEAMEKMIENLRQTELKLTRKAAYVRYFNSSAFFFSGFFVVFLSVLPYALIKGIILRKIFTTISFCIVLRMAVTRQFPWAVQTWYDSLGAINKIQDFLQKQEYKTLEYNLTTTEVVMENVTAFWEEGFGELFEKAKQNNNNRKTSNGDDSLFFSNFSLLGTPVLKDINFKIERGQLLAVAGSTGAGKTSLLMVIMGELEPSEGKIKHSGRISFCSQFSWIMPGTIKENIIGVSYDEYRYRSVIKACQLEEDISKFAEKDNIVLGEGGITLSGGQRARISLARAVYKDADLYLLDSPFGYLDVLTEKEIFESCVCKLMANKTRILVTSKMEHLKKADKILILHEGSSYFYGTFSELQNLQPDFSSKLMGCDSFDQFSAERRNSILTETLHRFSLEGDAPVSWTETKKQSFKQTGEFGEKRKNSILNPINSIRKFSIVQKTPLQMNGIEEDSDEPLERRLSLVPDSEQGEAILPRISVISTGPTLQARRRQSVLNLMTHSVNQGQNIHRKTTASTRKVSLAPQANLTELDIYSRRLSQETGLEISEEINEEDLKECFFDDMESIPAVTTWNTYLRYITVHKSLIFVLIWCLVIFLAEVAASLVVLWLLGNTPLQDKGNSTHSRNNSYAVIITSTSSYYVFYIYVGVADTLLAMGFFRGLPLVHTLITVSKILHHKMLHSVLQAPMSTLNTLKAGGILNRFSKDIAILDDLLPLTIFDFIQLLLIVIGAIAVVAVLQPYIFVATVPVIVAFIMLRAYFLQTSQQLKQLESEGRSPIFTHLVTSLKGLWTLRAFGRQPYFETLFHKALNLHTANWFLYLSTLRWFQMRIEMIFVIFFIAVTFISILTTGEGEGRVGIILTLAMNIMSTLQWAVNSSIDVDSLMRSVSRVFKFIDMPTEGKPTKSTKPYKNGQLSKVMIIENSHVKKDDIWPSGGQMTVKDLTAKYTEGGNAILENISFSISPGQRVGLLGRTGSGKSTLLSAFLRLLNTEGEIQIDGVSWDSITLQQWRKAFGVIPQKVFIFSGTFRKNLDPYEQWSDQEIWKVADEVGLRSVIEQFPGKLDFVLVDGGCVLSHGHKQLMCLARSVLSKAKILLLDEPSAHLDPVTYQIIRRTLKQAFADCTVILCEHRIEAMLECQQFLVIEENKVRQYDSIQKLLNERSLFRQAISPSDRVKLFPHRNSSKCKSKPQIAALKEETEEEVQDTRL

| Compound | F508del CFTR rescue (corrector) activity (F508del CFTR) | photoadduct formation with DNA upon UVA irradiation (salmon testes DNA) | cell viability (HepG2 cells) | F508del CFTR rescue (corrector) activity (F508del CFTR; listed as 12) | reduction in YFP fluorescence induced by iodide influx compared to vehicle (F508del CFTR; 48 h treatment, representative time courses) | F508del CFTR rescue (corrector) activity (F508del CFTR; listed as 25) |
| --- | --- | --- | --- | --- | --- | --- |
| Cc1cc(=O)oc2c1cc(-c1ccccc1)c1occ(C)c12 [6-PhDMA] | inactive | only the unchanged bands | – | – | – | – |
| Cc1cc2c(-c3ccccc3)cc(=O)oc2c2c(C)coc12 [4-PhDMA] | active; also recorded: most active derivatives of the series | only the unchanged bands | greater than 75% | promising F508del CFTR rescue ability | greater reduction in YFP fluorescence | – |
| Cc1cc(=O)oc2c1cc(-c1ccc(N)cc1)c1occ(C)c12 [pANDMA] | most active derivatives of the series | only the unchanged bands | greater than 75% | – | – | promising F508del CFTR rescue ability |
